Source: EP0512754B1 (AMERICAN HOME PRODUCTS CORPORATION, priority 1991, dated 1992)
Where two headings read alike, the source gives them in different places.

Columns and labels:
[1] = test system: cells from the thymus of normal BALB/c mice; assay: comitogen-induced thymocyte proliferation procedure (LAF); format: cell-based; details: read-out: LAF IC50
Method: (§1) Immunosuppressive activity was evaluated in an in vitro standard pharmacological test procedure to measure lymphocyte proliferation (LAF) and in two in vivo standard pharmacological test procedures. The first in vivo procedure was a popliteal lymph node (PLN) test procedure which measured the effect of compounds of this invention on a mixed lymphocyte reaction and the second in vivo procedure evaluated the survival time of a pinch skin graft.
The comitogen-induced thymocyte proliferation procedure (LAF) was used as an in vitro measure of the immunosuppressive effects of representative compounds. Briefly, cells from the thymus of normal BALB/c mice are cultured for 72 hours with PHA and IL-1 and pulsed with tritiated thymidine during the last six hours. […] Cells are harvested and incorporated; radioactivity is determined. Inhibition of lymphoproliferation is assessed in percent change in counts per minute from non-drug treated controls. […] (()^3 (H-control thymus cells - H)^3 rapamycin-treated thymus cells)/(()^3 (H-control thymus cells - H)^3 -test compound-treated cells) [formula]

[2] = test system: pinch skin graft from male DBA/2 donors transplanted to male BALB/c recipients; assay: pinch skin graft survival time; format: in vivo; details: DBA/2 donors to BALB/c recipients, treated intraperitoneally; mean ± S.D.
Method: as §1
The second in vivo test procedure is designed to determine the survival time of pinch skin graft from male DBA/2 donors transplanted to male BALB/c recipients. The method is adapted from Billingham R.E. and Medawar P.B., J. Exp. Biol. 28:385-402, (1951). Briefly, a pinch skin graft from the donor is grafted on the dorsum of the recipient as a homograft, and an autograft is used as control in the same region. […] Untreated recipients serve as rejection control. The graft is monitored daily and observations are recorded until the graft becomes dry and forms a blackened scab. This is considered as the rejection day. The mean graft survival time (number of days ± S.D.) of the drug treatment group is compared with the control group.

[3] = test system: mixed lymphocyte reaction; assay: popliteal lymph node (PLN) test procedure, in vivo mixed lymphocyte reaction; design: species or system C3H mice; details: for PLN Activity relative to Rapamycin: ratio to rapamycin
Method: as §1
A mixed lymphocyte reaction (MLR) occurs when lymphoid cells from genetically distinct animals are combined in tissue culture. Each stimulates the other to undergo blast transformation which results in increased DNA synthesis that can be quantified by the incorporation of tritiated thymidine. Since stimulating a MLR is a function of disparity at Major Histocompatibility antigens, an in vivo popliteal lymph node (PLN) test procedure closely correlates to host vs. graft disease. Briefly, irradiated spleen cells from BALB/c donors are injected into the right hind foot pad of recipient C3H mice. […] On Day 3 and Day 4, tritiated thymidine is given i.p., b.i.d. On Day 5, the hind popliteal lymph nodes are removed and dissolved, and radioactivity counted. The corresponding left PLN serves as the control for the PLN from the injected hind foot. Percent suppression is calculated using the non-drug treated animals as allogenic control.

[4] = test system: Candida albicans 3669; assay: plate test procedure for antifungal activity; format: cell-based; details: strain 3669
Method: (§2) Antifungal activity of the compounds of this invention was measured against 5 strains of Candida albicans using a plate test procedure for measurement of inhibition. The following represents the typical procedure used. The compound to be tested was placed on sterile dried 1/4" plate disks, and allowed to dry. Agar plates were seeded with fungi and allowed to solidify. The impregnated disks were placed on the seeded Agar surface and incubated for the time required for the particular culture. Results are expressed in MIC (µg/ml) to inhibit growth.
(§3) The compounds of Examples 1 and 4 had the following minimal inhibitory concentrations (50%) against 5 strains of Candida albicans.

[5] = test system: Candida albicans ATCC 10231; assay: plate test procedure for antifungal activity; format: cell-based; details: strain ATCC 10231
Method: as §2, §3

[6] = test system: Candida albicans ATCC 38246; assay: plate test procedure for antifungal activity; format: cell-based; details: strain ATCC 38246
Method: as §2, §3

[7] = test system: Candida albicans ATCC 38247; assay: plate test procedure for antifungal activity; format: cell-based; details: strain ATCC 38247
Method: as §2, §3

[8] = test system: Candida albicans ATCC 38248; assay: plate test procedure for antifungal activity; format: cell-based; details: strain ATCC 38248
Method: as §2, §3

[9] = Mus musculus, Thymocyte, 72 h, thymocytes cultured 72 hours with PHA and IL-1, tritiated thymidine incorporation
[10] = thymocytes cultured 72 hours with PHA and IL-1, tritiated thymidine incorporation

| Compound | IC50 [1, 9] | Skin Graft Mean survival days [2] | IC50 [1, 10] | PLN Activity relative to Rapamycin ([3]; ip) | also measured |
| --- | --- | --- | --- | --- | --- |
| CO[C@H]1C[C@@H]2CC[C@@H](C)[C@@](O)(O2)C(O)C(=O)N2CCCC[C@H]2C(=O)O[C@H]([C@H](C)C[C@@H]2CC[C@@H](O)[C@H](OC)C2)CC(O)[C@H](C)/C=C(\C)[C@@H](O)[C@@H](OC)C(=O)[C@H](C)C[C@H](C)/C=C/C=C/C=C/1C (single isomer, unassigned) [Example 2, 15,27-di(deoxo)-15,27-di(hydroxy)rapamycin] | 0.67 nM | 9.2 ± 0.41 days | – | – | – |
| 33-Deoxy-33-hydroxyrapamycin [Example 4] | – | 10.0 days | 4.7 nM | – | PLN Activity relative to Rapamycin ([3]; route not printed in the cell (method: daily p.o. Day 0 to Day 4)): 0.59; Anti-Candida Activity, Minimal Inhibitory Concentration (50%) [4]: 0.25 µg/mL; Anti-Candida Activity, Minimal Inhibitory Concentration (50%) [5]: 0.05 µg/mL; Anti-Candida Activity, Minimal Inhibitory Concentration (50%) [6]: >0.4 µg/mL; Anti-Candida Activity, Minimal Inhibitory Concentration (50%) [7]: 0.03 µg/mL; Anti-Candida Activity, Minimal Inhibitory Concentration (50%) [8]: 0.006 µg/mL |
| CO[C@H]1C[C@@H]2CC[C@@H](C)[C@@](O)(O2)C(=O)C(=O)N2CCCC[C@H]2C(=O)O[C@H]([C@H](C)C[C@@H]2CC[C@@H](O)[C@H](OC)C2)CC(=O)[C@H](C)/C=C(\C)[C@@H](O)[C@@H](OC)C(=O)[C@H](C)C[C@H](C)/C=C/C=C/C=C/1C [Rapamycin, reference compound] | – | – | – | – | IC50 ([1]; Mus musculus, Thymocyte, 72 h): 3.3 nM; Percent suppression (PLN) ([3]; 6 mg/kg, p.o., against non-drug treated allogenic control): 86% |
| CO[C@H]1C[C@@H]2CC[C@@H](C)[C@@](O)(O2)C(O)C(=O)N2CCCC[C@H]2C(=O)O[C@H]([C@H](C)C[C@@H]2CC[C@@H](O)[C@H](OC)C2)CC(O)[C@H](C)/C=C(\C)[C@@H](O)[C@@H](OC)C(=O)[C@H](C)C[C@H](C)/C=C/C=C/C=C/1C (single isomer, unassigned) [Example 3, 15,27-di(deoxo)-15,27-di(hydroxy)rapamycin] | – | 9.5 ± 5.5 days | 0.84 nM | 0.92 ip | – |
| CO[C@H]1C[C@@H]2CC[C@@H](C)[C@@](O)(O2)C(O)C(=O)N2CCCC[C@H]2C(=O)O[C@H]([C@H](C)C[C@@H]2CC[C@@H](O)[C@H](OC)C2)CC(=O)[C@H](C)/C=C(\C)[C@@H](O)[C@@H](OC)C(=O)[C@H](C)C[C@H](C)/C=C/C=C/C=C/1C (stereo partly shown) [Example 1, 15-Deoxo-15-hydroxyrapamycin] | 0.58 nM | 9.8 ± 1.0 days | – | -0.07 | PLN Activity relative to Rapamycin ([3]; po): -2.47 |
